Experiment [1] in a line: Binding affinity to Escherichia coli Lipid A assessed as dissociation constant.
The test system of experiment [2] is Acinetobacter baumannii. Put plainly: Synergistic antibacterial activity against colistin-sensitive Acinetobacter baumannii ATCC 17978 infected in C57BL/6 mouse assessed as increase in survival rate at 10 mg/kg,po administered in presence of novobiocin for 7 days. The conditions noted are these: ATCC 17978, 168 h, time 7 day. The experiment is classed as functional.

Experiment [3] relates to Acinetobacter baumannii. The experiment can be described thus: Synergistic antibacterial activity against colistin-resistant Acinetobacter baumannii ATCC 17978 infected in C57BL/6 mouse assessed as increase in survival rate at 10 mg/kg,po administered in presence of novobiocin for 7 days. Type of experiment: functional. The conditions noted are these: ATCC 17978, 168 h, time 7 day.

The test system of experiment [4] is Acinetobacter baumannii. The experiment can be described thus: Synergistic antibacterial activity against Acinetobacter baumannii infected in mouse assessed as increase in survival rate at 5 mg/kg,po administered bid in presence of SPR741 for 3 days. Type of experiment: functional. The conditions noted are these: 72 h, time 3 day.
Experiment [5] deals with Acinetobacter baumannii. Put plainly: Antibacterial activity against Acinetobacter baumannii infected in mouse assessed as increase in survival rate at 5 mg/kg,po administered bid for 3 days. The experiment is classed as functional. As to conditions: 72 h, time 3 day.
The subject of experiment [6] is Acinetobacter baumannii. The experiment can be described thus: Synergistic antibacterial activity against Acinetobacter baumannii infected in mouse assessed as reduction of bacterial burden in lung at 5 mg/kg,po administered bid in presence of SPR741 for 3 days. The experiment is classed as functional. The conditions noted are these: time 3 day.
Experiment [7] concerns Acinetobacter baumannii. Put plainly: Antibacterial activity against Acinetobacter baumannii infected in mouse assessed as reduction of bacterial burden in lung at 5 mg/kg,po administered bid for 3 days. Type of experiment: functional. The conditions noted are these: time 3 day.
Experiment [8] has as its system Acinetobacter baumannii. The experiment can be described thus: Synergistic antibacterial activity against Acinetobacter baumannii infected in mouse assessed as reduction of bacterial burden in lung at 60 mg/kg,po administered bid in presence of rifampin for 3 days. The experiment is classed as functional. As to conditions: time 3 day.
Experiment [9] deals with Acinetobacter baumannii. The experiment can be described thus: Synergistic antibacterial activity against Acinetobacter baumannii infected in mouse assessed as increase in survival rate at 60 mg/kg,po administered bid in presence of rifampin for 3 days. Type of experiment: functional. As to conditions: 72 h, time 3 day.
The test system of experiment [10] is Escherichia coli. Put plainly: Antibacterial activity against Escherichia coli IH3080 assessed as reduction in bacterial growth by measuring fold change incubated for 18 hrs by spectrophotometry. Type of experiment: functional.
Experiment [11] relates to Salmonella typhimurium. Put plainly: Antibacterial activity against Salmonella typhimurium SH5014 assessed as reduction in bacterial growth by measuring fold change incubated for 18 hrs by spectrophotometry. Type of experiment: functional, Salmonella enterica subsp. enterica serovar Typhimurium.
For experiment [12], the system named is Acinetobacter baumannii. The experiment can be described thus: Synergistic antibacterial activity against colistin-sensitive Acinetobacter baumannii ATCC 17978 infected in C57BL/6 mouse assessed as increase in survival rate at 5 mg/kg,po administered in presence of pentamidine for 7 days. Type of experiment: functional. As to conditions: ATCC 17978, 168 h, time 7 day.

Experiment [13] relates to Acinetobacter baumannii. The experiment can be described thus: Synergistic antibacterial activity against colistin-resistant Acinetobacter baumannii ATCC 17978 infected in C57BL/6 mouse assessed as increase in survival rate at 50 mg/kg,po administered in presence of pentamidine for 7 days. Type of experiment: functional. The conditions noted are these: ATCC 17978, 168 h, time 7 day.

For experiment [14], the system named is Acinetobacter baumannii. The experiment can be described thus: Antibacterial adjuvant activity against Acinetobacter baumannii AB5075 assessed as decrease in vancomycin MIC at 30 uM incubated for 16 hrs in presence of vancomycin by broth microdilution method. The experiment is classed as functional. (In broth dilution the organism is exposed to a series of concentrations in liquid medium.)

Experiment [15] has as its system Acinetobacter baumannii. Put plainly: Antibacterial adjuvant activity against Acinetobacter baumannii AB5075 assessed as decrease in clarithromycin MIC at 30 uM incubated for 16 hrs in presence of clarithromycin by broth microdilution method. Type of experiment: functional.
Experiment [16] has as its system Acinetobacter baumannii. Put plainly: Antibacterial adjuvant activity against Acinetobacter baumannii AB5075 assessed as decrease in clarithromycin MIC at 10 uM incubated for 16 hrs in presence of clarithromycin by broth microdilution method. The experiment is classed as functional.
In experiment [17] the test system is Pseudomonas aeruginosa. Put plainly: Antibacterial adjuvant activity against Pseudomonas aeruginosa PAO1 assessed as decrease in azithromycin MIC at 60 uM incubated for 16 hrs in presence of azithromycin by broth microdilution method. Type of experiment: functional.
The subject of experiment [18] is Pseudomonas aeruginosa. Put plainly: Antibacterial adjuvant activity against Pseudomonas aeruginosa PAO1 assessed as decrease in azithromycin MIC at 40 uM incubated for 16 hrs in presence of azithromycin by broth microdilution method. Type of experiment: functional.
Experiment [19] relates to Escherichia coli. Put plainly: Antibacterial activity against Escherichia coli IH3080 assessed as reduction in bacterial growth by measuring fold change at 3 ug/ml incubated for 18 hrs by spectrophotometry. Type of experiment: functional. The conditions noted are these: dose 3 µg/ml.
Experiment [20] concerns Salmonella typhimurium. Put plainly: Antibacterial activity against Salmonella typhimurium SH5014 assessed as reduction in bacterial growth by measuring fold change at 3 ug/ml incubated for 18 hrs by spectrophotometry. As to conditions: dose 3 µg/ml. Type of experiment: functional, Salmonella enterica subsp. enterica serovar Typhimurium.

From ChEMBL document CHEMBL5241125, “Overcoming intrinsic resistance in gram-negative bacteria using small molecule adjuvants” (Bioorg Med Chem Lett, 2023) come the findings set out here.

Where a SMILES comes first, the peptide text is derived from it. Bridges are numbered along the chain shown (N, C = ends). [ ]: non-standard residue; d: D form. Dab = NCC[C@H](N)C(=O)O

Regarding `N=C(N)c1ccc(OCCCCCOc2ccc(C(=N)N)cc2)cc1` [PENTAMIDINE], in experiment [1], the Kd – broadly, the equilibrium constant for the complex coming apart – came out at 120 nM. In addition, the survival at 10 mg/kg in the experiment with Acinetobacter baumannii [2] worked out at 100%; in the experiment with Acinetobacter baumannii [3] it was 90%.
In the case of `CO[C@H]1/C=C/O[C@@]2(C)Oc3c(C)c(O)c4c(O)c(c(/C=N/N5CCN(C)CC5)c(O)c4c3C2=O)NC(=O)/C(C)=C\C=C\[C@H](C)[C@H](O)[C@@H](C)[C@@H](O)[C@@H](C)[C@H](OC(C)=O)[C@@H]1C` [RIFAMPIN], the figures for the survival at 5 mg/kg in the experiment on Acinetobacter baumannii [4] and in the experiment on Acinetobacter baumannii [5] were 90% and 50%, respectively. The figures for the Activity with Acinetobacter baumannii [6] and in the experiment with Acinetobacter baumannii [7] were 6 log10CFU/g and 2 log10CFU/g, respectively.
With `CC(=O)N[C@H](C(=O)N[C@H](CO)C(=O)N[C@H]1CCNC(=O)[C@H]([C@@H](C)O)NC(=O)[C@H](CCN)NC(=O)[C@H](CCN)NC(=O)[C@H](CC(C)C)NC(=O)[C@@H](Cc2ccccc2)NC(=O)[C@H](CCN)NC1=O)[C@@H](C)O` [SPR-741] (Ac-T[dS][Dab][Dab][dF]L[Dab][Dab]T; lactam 3-C), the Activity with Acinetobacter baumannii [8] came to 6 log10CFU/g. Also, the survival at 60 mg/kg with Acinetobacter baumannii [9] worked out at 90%.
For `CC(C)C[C@@H]1NC(=O)[C@@H](Cc2ccccc2)NC(=O)[C@H](CCN)NC(=O)[C@@H](NC(=O)[C@H](CCN)NC(=O)[C@@H](NC(=O)[C@@H](N)CCN)[C@H](C)O)CCNC(=O)[C@H]([C@@H](C)O)NC(=O)[C@H](CCN)NC(=O)[C@H](CCN)NC1=O`, the “fold change (FC)” value in the experiment with Escherichia coli [10] and in the experiment with Salmonella typhimurium [11] was 300 in each case.
For `CO[C@@H]1[C@@H](OC(N)=O)[C@@H](O)[C@H](Oc2ccc3c(O)c(NC(=O)c4ccc(O)c(CC=C(C)C)c4)c(=O)oc3c2C)OC1(C)C` [NOVOBIOCIN], the survival at 5 mg/kg in the experiment on Acinetobacter baumannii [12] worked out at 100%. The survival at 50 mg/kg in the experiment with Acinetobacter baumannii [13] came to 90%.
Consider `Nc1nc(-c2ccc(NC(=O)c3cc(Cl)cc(Cl)c3)cc2)c[nH]1`, for which the figures for the MIC with Acinetobacter baumannii [14], in the experiment with Acinetobacter baumannii [15] and with Acinetobacter baumannii [16] were 1 µg/mL, 0.25 µg/mL and 2 µg/mL, respectively.
Consider `CC(C)C[C@@H]1NC(=O)[C@@H](CC(C)C)NC(=O)[C@H](CCN)NC(=O)[C@@H](NC(=O)[C@H](CCN)NC(=O)[C@@H](NC(=O)[C@@H](N)CCN)[C@H](C)O)CCNC(=O)[C@H]([C@@H](C)O)NC(=O)[C@H](CCN)NC(=O)[C@H](CCN)NC1=O`, for which the “fold change (FC)” value in the experiment on Escherichia coli [10] and in the experiment with Salmonella typhimurium [11] was 300 throughout.
As for `Nc1ncc(-c2ccc(NC(=O)c3cc(Br)cc(Br)c3)cc2)[nH]1`, the MIC (commonly the lowest concentration found to suppress growth) in the experiment with Acinetobacter baumannii [14] is 1 µg/mL; in the experiment with Acinetobacter baumannii [15] it was 0.25 µg/mL; in the experiment on Acinetobacter baumannii [16], 2 µg/mL.
`NCCCC(c1c[nH]c(N)n1)c1cnc(N)[nH]1`: the values for the MIC in the experiment with Pseudomonas aeruginosa [17] and with Pseudomonas aeruginosa [18] were 0.25 µg/mL and 1 µg/mL, respectively.
On to `CC(C)C[C@@H]1NC(=O)[C@@H](Cc2ccccc2)NC(=O)[C@H](CCN)NC(=O)[C@@H](NC(=O)[C@H](CCN)NC(=O)[C@@H](N)[C@H](C)O)CCNC(=O)[C@H]([C@@H](C)O)NC(=O)[C@H](CCN)NC(=O)[C@H](CCN)NC1=O`, for which the “fold change (FC)” value with Escherichia coli [19] and with Salmonella typhimurium [20] was 10 throughout.
